Source: PubChem BioAssay (NCI)
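A five-concentration, 48-hour dose response in 96-well plates underlies each endpoint, interpolated linearly between surrounding concentrations. Definition used: TGI = concentration required for complete inhibition of growth.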

Key:
Assay in all cases: NCI anticancer screen, dose series, 48 h
KM12 colon = tested on: KM12 colon
SF-295 CNS = tested on: SF-295 CNS
NCI-H460 lung = tested on: NCI-H460 lung
UACC-62 melanoma = tested on: UACC-62 melanoma
UACC-257 melanoma = tested on: UACC-257 melanoma
SNB-75 CNS = tested on: SNB-75 CNS
SK-MEL-28 melanoma = tested on: SK-MEL-28 melanoma
HOP-92 NSCLC = tested on: HOP-92 NSCLC
PC-3 prostate = tested on: PC-3 prostate
MDA-MB-231 breast = tested on: MDA-MB-231 breast

SMILES | TGI (KM12 colon) [µM] | TGI (SF-295 CNS) [µM] | TGI (NCI-H460 lung) [µM] | TGI (UACC-62 melanoma) [µM] | TGI (UACC-257 melanoma) [µM] | TGI (SNB-75 CNS) [µM] | TGI (SK-MEL-28 melanoma) [µM] | TGI (HOP-92 NSCLC) [µM] | TGI (PC-3 prostate) [µM] | TGI (MDA-MB-231 breast) [µM]
COC(=O)CC(=O)OC1C[C@@H]2CCC3C(C)(C)CCC[C@]3(C)C23CC[C@@]1(C)C3 (some centres not stated) | 33.9 | 34.5 | 37.5 | 30.7 | 35.3 | 51.2 | 38.8 | 31.9 |  | 
COc1ccc(Cl)cc1NC(=O)O/N=C(\Cl)C(C)C | 35.5 | 33.9 | 37.6 | 32.1 | 35.9 | 38.7 | 42.9 | 3.9 | 32.3 | 15.1
N#C/C(=C/c1ccc([N+](=O)[O-])o1)c1ccccc1 | > 100 | > 100 | > 100 | > 100 | > 100 | > 100 | > 100 | > 100 |  | 
O=C1c2cccc3cc([N+](=O)[O-])cc(c23)C(=O)N1c1ccc(OCCN2CCCC2)cc1 | > 100 | 41.1 | 21.3 |  | 36.1 | 67.1 | 45.9 | > 100 | > 100 | > 100
CC(=O)N(C(=O)CC(=O)N1N=C(C)C(N=Nc2cccc([N+](=O)[O-])c2)C1=O)c1ccc(Cl)cc1 (configuration not stated) | > 10 | > 10 |  | > 10 | > 10 | > 10 | > 10 | > 10 | > 10 | > 10
COc1ccc(/C=C(\C#N)c2ccccn2)cc1OC | > 100 | 85.3 | > 100 | > 100 | > 100 | 84.9 | > 100 | 48.7 | 65.7 | 
CCOC(=O)c1c(N2CCN(C)CC2)[nH]c(=O)c(C(c2c(Cl)cccc2Cl)c2c(O)c(C(=O)OCC)c(N3CCN(C)CC3)[nH]c2=O)c1O | 49.7 | 63.3 | 77 | 39.5 | 38.9 |  | 34.1 | 37.6 | 47.5 | 55.1
O=C(NCC(O)COc1ccccc1)c1ccccc1O (configuration not stated) | > 100 | > 100 |  | > 100 | > 100 |  | > 100 | > 100 | > 100 | > 100
O=C1CCNC/C1=C\c1ccccc1 | 28.9 | 67.8 | > 100 | 34.3 | 58.8 | > 100 | 35.1 |  |  | 
O=S(c1ccc(O)cc1)c1ccc(O)cc1 | > 100 | > 100 | > 100 | > 100 | > 100 | > 100 | > 100 | > 100 |  | 
Cc1ccc2c(c1)CC1(Cc3cc(C)ccc3C1=O)C2=O |  | > 100 | > 100 |  | > 100 | > 100 | > 100 | > 100 | > 100 | > 100
O=c1[nH]nc(-c2cccc([N+](=O)[O-])c2)[nH]1 | > 100 | > 100 | > 100 | > 100 | > 100 | > 100 | > 100 |  | > 100 | 
CCCC(O)c1ccc2[nH]c3c(C)cc([N+](=O)[O-])c(C)c3c2c1 (configuration not stated) | > 100 | > 100 | > 100 |  | > 100 | > 100 | > 100 |  |  | 
O=C(O)c1ccccc1Sc1ccc(C=C2NC(=S)N(c3ccccc3)C2=O)s1 | > 100 | > 100 | > 100 | > 100 | > 100 | > 100 | > 100 |  | > 100 | > 100
COc1ccc(N2C(=O)[C@@H]3[C@@H]4CC(C)CC[C@@H]4c4c([nH]c5ccccc45)[C@@H]3C2=O)cc1 (some centres not stated) | > 100 | 45 | 59.3 | 40.8 | > 100 | 12.4 | > 100 | 23 |  | 
O=C1CC2(CCN(Cc3ccccc3)CC2)C(=O)N1N1CCCCC1 | > 100 | > 100 | > 100 | > 100 | > 100 | > 100 | > 100 |  | > 100 | > 100
COC(OC)c1cccc2c1C(=O)CCC1(CC2)OCCCCO1 | > 100 | > 100 | > 100 | > 100 | > 100 | > 100 | > 100 |  |  | 
CC(NC(CC12CC3CC(CC(C3)C1)C2)C(N)=O)c1ccccc1 (configuration not stated) |  | 28.4 | 36.6 | > 100 | 41.8 |  | 40.4 |  | > 100 | > 100
c1ccc(-c2cc(-c3ccccc3)nc(-c3ccncc3)c2)cc1 | > 100 | > 100 |  | > 100 | > 100 |  | > 100 |  | > 100 | > 100
CCc1nnc2sc(-c3ccc(-c4ccccc4[N+](=O)[O-])o3)nn12 | > 100 | > 100 | > 100 | > 100 | > 100 | > 100 |  | > 100 | > 100 | > 100
COc1ccc(C(CC(=O)c2cccs2)C(=O)c2ccc3c(c2)OCO3)cc1 (configuration not stated) | > 100 |  | > 100 | > 100 | > 100 | > 100 | > 100 |  | > 100 | > 100
COC1=CC(=O)C2(C=C1OC)OC[C@H]1Oc3c(ccc4c3C=CC(C)(C)O4)C(=O)[C@H]12 (some centres not stated) | > 100 |  | > 100 | > 100 | > 100 | > 100 | > 100 | 44.3 |  | 
CN1C/C(=C\c2ccccc2)C2=NN(C(N)=S)[C@H](c3ccccc3)[C@@H]2C1 | > 100 | > 100 | > 100 | > 100 | > 100 |  | > 100 | > 100 |  | 
CC(=O)OC1CCC2(C)C(CCC3C2CCC2(C)C(c4ccc(=O)oc4)C(OC(C)=O)CC32O)C1 (configuration not stated) | 0.161 | 0.0456 | 0.0197 | 0.0506 | 0.115 | 0.0801 | 0.497 | 0.0721 |  | 

SMILES | TGI (KM12 colon) [µM] | TGI (SF-295 CNS) [µM] | TGI (NCI-H460 lung) [µM] | TGI (UACC-62 melanoma) [µM] | TGI (UACC-257 melanoma) [µM] | TGI (SNB-75 CNS) [µM] | TGI (SK-MEL-28 melanoma) [µM] | TGI (HOP-92 NSCLC) [µM] | TGI (PC-3 prostate) [µM] | TGI (MDA-MB-231 breast) [µM]
O=C1OCc2nc3c(c(-c4ccccc4C(F)(F)F)c21)C(=O)OC3 | > 100 | > 100 | > 100 | > 100 | > 100 |  | > 100 | > 100 |  | 
Cc1nc2nnc(CCCCCCCCc3nnc4nc(C)[nH]n34)n2[nH]1 | > 100 | > 100 | > 100 |  | > 100 | > 100 | > 100 | > 100 | > 100 | > 100
CCC(C)C(NC(=O)c1cccc2c(=O)c3ccccc3[nH]c12)C(=O)O (configuration not stated) | > 100 | > 100 |  | > 100 |  | > 100 | > 100 | > 100 | > 100 | > 100
Cc1csc(NCc2ccc(Cl)cc2)n1 | > 100 | > 100 |  |  | > 100 | > 100 | > 100 | 89.9 | > 100 | > 100
C#C[C@]1(O)CC[C@H]2[C@@H]3CCC4=C/C(=N/OC(=O)c5cccc6cc7ccccc7nc56)CC[C@@H]4[C@H]3CC[C@@]21CC | > 100 |  | > 100 | > 100 | > 100 | > 100 | > 100 | > 100 | > 100 | > 100
Cc1cc2c3ccccc3n3c2c2c1OC1(C)CCC(C2C1)C3(C)C (configuration not stated) | > 25 |  | > 25 | > 25 |  |  | > 25 | > 25 |  | 
O=C(CC(C(=O)c1ccsc1)c1cccs1)c1cccs1 (configuration not stated) |  | > 100 | > 100 | > 100 | > 100 | > 100 | > 100 | > 100 |  | 
O=[N+]([O-])c1ccc(CSC2=C(c3ccc(Cl)cc3)S/C(=C3\SC(SCc4ccc([N+](=O)[O-])cc4)=C(c4ccc(Cl)cc4)S3)S2)cc1 | > 100 | > 100 | > 100 | > 100 | > 100 |  | > 100 | > 100 | > 100 | > 100
CCCNC(=O)c1cc(OC)c(OC)cc1NC(=O)C12CC3CC(CC(C3)C1)C2 | 32 | 35.9 | 43.1 |  | 32.8 |  | 32.6 | 34.6 | 35.1 | 31.4
O=C1c2ccccc2CC12Cc1ccc3c(c1C2=O)CCCC3 (configuration not stated) | > 100 | > 100 | > 100 | > 100 | > 100 | 70.5 | > 100 |  | > 100 | 86
Cc1cc2nc3c(N)nn(CCCN(C)C)c3nc2cc1C | > 100 | > 100 | > 100 | > 100 | > 100 | > 100 | > 100 |  | > 100 | > 100
CCN(CC)C(=O)Cc1[nH][nH]c(=O)c1C(=O)N(CC)CC | > 100 | > 100 | > 100 | > 100 | > 100 | > 100 | > 100 | > 100 |  | 
CCOC(=O)CN(CC)C(=O)NC12CC3CC(CC(C3)C1)C2 | > 750 | > 615 | 558 | 312 | 433 | 316 | > 750 | 176 |  | 
CCOC(=O)/C(C(=O)c1ccc[nH]1)=C1/CCCN1C | > 100 | > 100 | > 100 | > 100 | > 100 | > 100 | > 100 |  | > 100 | > 100
O=C1C=C2SC3C[C@@]24CC1(O)[N+]1=c2c4c(c(O)c4c2=C(C=N4)CC1)N3 | 2.91 | 2.95 | 4.26 | 1.51 | 2.42 | 3.23 | 3.03 | 2.67 |  | 
O=C(Cn1c(=O)oc2ccccc21)N(c1ccccc1)c1ccccc1 | > 100 | > 100 | > 100 | > 100 | > 100 | 71 | > 100 |  | > 100 | > 100
Clc1ccc(Cc2nc3cc4ccccc4cc3[nH]2)cc1Cl | 45.9 |  | > 100 | 34.2 | 37.7 | 44.5 | 29.4 | 30.6 | 43.4 | 38
N#CCCN(C(=O)Nc1ccc(NC(=O)N(CCC#N)c2ccccc2)cc1)c1ccccc1 | > 100 | > 100 | > 100 | > 100 |  | > 100 | > 100 |  | > 100 | > 100
CC[C@@]1(O)C(=O)OCc2c1cc1n(c2=O)Cc2c-1nc1ccc(N)cc1c2CC[Si](C)(C)C | 3.68 | < 0.0417 | < 0.013 | < 0.0104 | 0.155 |  | 13.8 | 1.07 | 13.7 | 0.428
C=CCSC1=N/C(=C\c2ccc(C)cc2)C(=O)N1CC=C | 69.1 | > 100 | > 100 | > 100 | 59.8 |  | > 100 | 57.5 | 70 | > 100
Cc1n[nH]c(=O)c2c3c([nH]c12)-c1ccccc1C3 | > 100 | > 100 | > 100 |  | > 100 | 66.6 | > 100 | > 100 | > 100 | > 100
C1CCC(CC2CCC(NC3=NCCO3)CC2)CC1 (configuration not stated) | 32.7 | 36 | 37.1 | 31.1 | 30.1 | 36.6 | 33.2 |  | 31.7 | 37.5
CCOC(=O)c1c(NS(=O)(=O)c2ccccc2)sc2c1CCCC2 | > 100 | > 100 | > 100 | > 100 | > 100 | > 100 |  |  | > 100 | > 100
O=[N+]([O-])c1ccc(N=P(c2ccccc2)(c2ccccc2)c2ccccc2)n2nnnc12 | > 100 | 90.2 | > 100 | > 100 | > 100 | 42.6 | > 100 | 67.5 |  | 
